Results: patent publication US9695155B2, “Herbicidal substituted pyrimidinyloxy benzene compounds” (E. I. DU PONT DE NEMOURS AND COMPANY, priority 2013, dated 2017)

Experiments:
Assay in all cases: Test E preemergence
[1] = system: velvetleaf; type: in vivo, Abutilon theophrasti; details: for Velvetleaf plant response rating: scale 0 to 100 (0 no effect, 100 complete control)
Source text: (§1) Seeds of plant species selected from corn (Zea mays), soybean (Glycine max), velvetleaf (Abutilon theophrasti), lambsquarters (Chenopodium album), wild poinsettia (Euphorbia heterophylla), palmer pigweed (Amaranthus palmeri), waterhemp (common waterhemp, Amaranthus rudis), surinam grass (Brachiaria decumbens), large (Lg) crabgrass (Digitaria sanguinalis), Brazilian crabgrass (Digitaria horizontalis), fall panicum (Panicum dichotomiflorum), giant foxtail (Setaria faberii), green foxtail (Setaria viridis), goosegrass (Eleusine indica), johnsongrass (Sorghum halepense), ragweed (common ragweed, Ambrosia elatior), barnyardgrass (Echinochloa crus-galli), sandbur (southern sandbur, Cenchrus echinatus), arrowleaf sida (Sida rhombifolia), Italian ryegrass (Lolium multiflorum), dayflower (Virginia (VA) dayflower, Commelina virginica), field bindweed (Convolvulus arvensis), morningglory (Ipomoea coccinea), nightshade (eastern black nightshade, Solanum ptycanthum), kochia (Kochia scoparia), yellow nutsedge (Cyperus esculentus), cocklebur (common cocklebur, Xanthium strumarium), smartweed (ladysthumb smartweed, and hairy beggarticks (Bidens pilosa), were planted into a silt loam soil and treated preemergence with test chemicals formulated in a non-phytotoxic solvent mixture which included a surfactant.
(§2) At the same time, plants from these crop and weed species and also horseweed (Canada horseweed, Conyza canadensis), waterhemp_RES1, (ALS & Triazine resistant common waterhemp, Amaranthus rudis), and waterhemp_RES2, (ALS & HPPD resistant common waterhemp, Amaranthus rudis) were planted in pots containing Redi-Earth® planting medium (Scotts Company, 14111 Scottslawn Road, Marysville, Ohio 43041) comprising spaghnum peat moss, vermiculite, wetting agent and starter nutrients were treated with postemergence applications of test chemicals formulated in the same manner. Plants ranged in height from 2 to 18 cm for postemergence treatments (1- to 4-leaf stage). Treated plants and controls were maintained in a greenhouse for 14 to 21 days, after which time all species were compared to controls and visually evaluated. Plant response ratings, summarized in Table E, are based on a scale of 0 to 100 where 0 is no effect and 100 is complete control. A dash (-) response means no test result.

[2] = system: large (Lg) crabgrass; type: in vivo, Digitaria sanguinalis; details: for Crabgrass, Large plant response rating: scale 0 to 100 (0 no effect, 100 complete control)
Source text: as §1, §2

[3] = system: green foxtail; type: in vivo, Setaria viridis; details: for Foxtail, Green plant response rating: scale 0 to 100 (0 no effect, 100 complete control)
Source text: as §1, §2

[4] = system: johnsongrass; type: in vivo, Sorghum halepense; details: for Johnsongrass plant response rating: scale 0 to 100 (0 no effect, 100 complete control)
Source text: as §1, §2

[5] = system: ragweed; type: in vivo, Ambrosia elatior; details: for Ragweed plant response rating: scale 0 to 100 (0 no effect, 100 complete control)
Source text: as §1, §2

[6] = system: arrowleaf sida; type: in vivo, Sida rhombifolia; details: for Arrowleaf Sida plant response rating: scale 0 to 100 (0 no effect, 100 complete control)
Source text: as §1, §2

[7] = system: dayflower; type: in vivo, Commelina virginica; details: for Dayflower, VA plant response rating: scale 0 to 100 (0 no effect, 100 complete control)
Source text: as §1, §2

[8] = system: morningglory; type: in vivo, Ipomoea coccinea; details: for Morningglory plant response rating: scale 0 to 100 (0 no effect, 100 complete control)
Source text: as §1, §2

[9] = system: nightshade; type: in vivo, Solanum ptycanthum; details: for Nightshade plant response rating: scale 0 to 100 (0 no effect, 100 complete control)
Source text: as §1, §2

[10] = system: hairy beggarticks; type: in vivo, Bidens pilosa; details: for Beggarticks plant response rating: scale 0 to 100 (0 no effect, 100 complete control)
Source text: as §1, §2

[11] = system: fall panicum; type: in vivo, Panicum dichotomiflorum; details: for Panicum, Fall plant response rating: scale 0 to 100 (0 no effect, 100 complete control); for Plant response rating, Panicum, Fall: scale 0 to 100, 0 no effect, 100 complete control
Source text: as §1, §2

[12] = 8 g ai/ha, scale 0 to 100, 0 is no effect, 100 is complete control
[13] = 125 g ai/ha, scale 0 to 100, 0 no effect, 100 complete control
[14] = 8 g ai/ha, preemergence, scale 0 to 100, 0 is no effect, 100 is complete control
[15] = Preemergence, 62 g ai/ha, scale 0 to 100, 0 no effect, 100 complete control
[16] = preemergence, 125 g ai/ha, scale 0 to 100, 0 no effect, 100 complete control
[17] = 250 g ai/ha, scale 0 to 100, 0 no effect, 100 complete control
[18] = preemergence, 250 g ai/ha, scale 0 to 100, 0 no effect, 100 complete control

Clc1cnc(Oc2ccccc2-n2cc(Br)cn2)nc1 [Compound 7, 2-[2-(4-bromo-1H-pyrazol-1-yl)phenoxy]-5-chloropyrimidine]
98: Velvetleaf plant response rating ([1]; 62 g ai/ha) | Plant response rating, Crabgrass, Large [2, 13] | Nightshade plant response rating ([9]; 31 g ai/ha) | Nightshade plant response rating ([9]; 62 g ai/ha) | Plant response rating, Nightshade [9, 13]
50: Velvetleaf plant response rating ([1]; 16 g ai/ha) | Plant response rating, Johnsongrass [4, 13] | Plant response rating, Arrowleaf Sida [6, 15]
70: Crabgrass, Large plant response rating ([2]; 31 g ai/ha)
80: Plant response rating, Arrowleaf Sida [6, 16]
30: Foxtail, Green plant response rating ([3]; 31 g ai/ha)
40: Johnsongrass plant response rating ([4]; 62 g ai/ha)
100: Plant response rating, Velvetleaf [1, 13]
75: Crabgrass, Large plant response rating ([2]; 62 g ai/ha) | Plant response rating, Foxtail, Green [3, 13]
0: Plant response rating, Crabgrass, Large [2, 12] | Crabgrass, Large plant response rating ([2]; 16 g ai/ha) | Plant response rating, Foxtail, Green [3, 12] | Foxtail, Green plant response rating ([3]; 16 g ai/ha) | Plant response rating, Johnsongrass [4, 12] | Johnsongrass plant response rating ([4]; 16 g ai/ha) | Johnsongrass plant response rating ([4]; 31 g ai/ha) | Plant response rating, Ragweed [5, 12] | Ragweed plant response rating ([5]; 16 g ai/ha) | Ragweed plant response rating ([5]; 31 g ai/ha) | Ragweed plant response rating ([5]; 62 g ai/ha) | Plant response rating, Ragweed [5, 13] | Plant response rating, Arrowleaf Sida [6, 14] | Arrowleaf Sida plant response rating ([6]; 16 g ai/ha, preemergence) | Plant response rating, Dayflower, VA [7, 12] | Dayflower, VA plant response rating ([7]; 16 g ai/ha) | Dayflower, VA plant response rating ([7]; 31 g ai/ha) | Plant response rating, Morningglory [8, 12] | Morningglory plant response rating ([8]; 16 g ai/ha) | Morningglory plant response rating ([8]; 31 g ai/ha) | Morningglory plant response rating ([8]; 62 g ai/ha) | Plant response rating, Morningglory [8, 13] | Plant response rating, Nightshade [9, 12] | Plant response rating, Beggarticks [10, 14] | Beggarticks plant response rating ([10]; 16 g ai/ha, preemergence) | Beggarticks plant response rating ([10]; 31 g ai/ha, preemergence) | Plant response rating, Beggarticks [10, 15] | Plant response rating, Beggarticks [10, 16]
65: Velvetleaf plant response rating ([1]; 31 g ai/ha) | Plant response rating, Dayflower, VA [7, 13] | Nightshade plant response rating ([9]; 16 g ai/ha)
20: Plant response rating, Velvetleaf [1, 12] | Dayflower, VA plant response rating ([7]; 62 g ai/ha)
25: Arrowleaf Sida plant response rating ([6]; 31 g ai/ha, preemergence)
35: Foxtail, Green plant response rating ([3]; 62 g ai/ha)

FC(F)(F)c1cnn(-c2ccccc2Oc2ncc(Cl)cn2)c1 [Compound 16]
40: Plant response rating, Johnsongrass [4, 17]
80: Plant response rating, Crabgrass, Large [2, 13] | Panicum, Fall plant response rating ([11]; 31 g ai/ha)
35: Arrowleaf Sida plant response rating ([6]; 31 g ai/ha, preemergence) | Dayflower, VA plant response rating ([7]; 62 g ai/ha)
100: Plant response rating, Velvetleaf [1, 13] | Plant response rating, Velvetleaf [1, 17] | Plant response rating, Crabgrass, Large [2, 17] | Panicum, Fall plant response rating ([11]; 62 g ai/ha) | Plant response rating, Panicum, Fall ([11]; 125 g ai/ha) | Plant response rating, Panicum, Fall ([11]; 250 g ai/ha) | Plant response rating, Foxtail, Green [3, 17] | Nightshade plant response rating ([9]; 62 g ai/ha) | Plant response rating, Nightshade [9, 13] | Plant response rating, Nightshade [9, 17]
25: Plant response rating, Johnsongrass [4, 13] | Plant response rating, Morningglory [8, 13]
50: Velvetleaf plant response rating ([1]; 31 g ai/ha)
30: Plant response rating, Ragweed [5, 13]
0: Velvetleaf plant response rating ([1]; 16 g ai/ha) | Crabgrass, Large plant response rating ([2]; 16 g ai/ha) | Crabgrass, Large plant response rating ([2]; 31 g ai/ha) | Panicum, Fall plant response rating ([11]; 16 g ai/ha) | Foxtail, Green plant response rating ([3]; 16 g ai/ha) | Johnsongrass plant response rating ([4]; 16 g ai/ha) | Johnsongrass plant response rating ([4]; 31 g ai/ha) | Johnsongrass plant response rating ([4]; 62 g ai/ha) | Ragweed plant response rating ([5]; 16 g ai/ha) | Ragweed plant response rating ([5]; 31 g ai/ha) | Ragweed plant response rating ([5]; 62 g ai/ha) | Dayflower, VA plant response rating ([7]; 16 g ai/ha) | Dayflower, VA plant response rating ([7]; 31 g ai/ha) | Morningglory plant response rating ([8]; 16 g ai/ha) | Morningglory plant response rating ([8]; 31 g ai/ha) | Morningglory plant response rating ([8]; 62 g ai/ha) | Nightshade plant response rating ([9]; 16 g ai/ha) | Beggarticks plant response rating ([10]; 16 g ai/ha, preemergence) | Beggarticks plant response rating ([10]; 31 g ai/ha, preemergence) | Plant response rating, Beggarticks [10, 15] | Plant response rating, Beggarticks [10, 16] | Plant response rating, Beggarticks [10, 18]
95: Plant response rating, Arrowleaf Sida [6, 16] | Plant response rating, Morningglory [8, 17]
65: Crabgrass, Large plant response rating ([2]; 62 g ai/ha) | Plant response rating, Ragweed [5, 17]
98: Plant response rating, Arrowleaf Sida [6, 18] | Plant response rating, Dayflower, VA [7, 17] | Nightshade plant response rating ([9]; 31 g ai/ha)
90: Plant response rating, Foxtail, Green [3, 13]
20: Foxtail, Green plant response rating ([3]; 31 g ai/ha)
70: Foxtail, Green plant response rating ([3]; 62 g ai/ha) | Plant response rating, Arrowleaf Sida [6, 15] | Plant response rating, Dayflower, VA [7, 13]
85: Velvetleaf plant response rating ([1]; 62 g ai/ha)
5: Arrowleaf Sida plant response rating ([6]; 16 g ai/ha, preemergence)

N#Cc1cccc(Oc2ncc(Cl)cn2)c1-n1cc(C(F)(F)F)cn1 [Compound 58, 3-[(5-chloro-2-pyrimidinyl)oxy]-2-[4-(trifluoromethyl)-1H-pyrazol-1-yl]benzonitrile]
95: Panicum, Fall plant response rating ([11]; 16 g ai/ha) | Foxtail, Green plant response rating ([3]; 31 g ai/ha) | Johnsongrass plant response rating ([4]; 62 g ai/ha) | Plant response rating, Johnsongrass [4, 13]
0: Ragweed plant response rating ([5]; 16 g ai/ha) | Ragweed plant response rating ([5]; 31 g ai/ha) | Beggarticks plant response rating ([10]; 16 g ai/ha, preemergence) | Beggarticks plant response rating ([10]; 31 g ai/ha, preemergence) | Plant response rating, Beggarticks [10, 15]
75: Crabgrass, Large plant response rating ([2]; 16 g ai/ha)
85: Plant response rating, Ragweed [5, 17]
65: Foxtail, Green plant response rating ([3]; 16 g ai/ha)
90: Velvetleaf plant response rating ([1]; 62 g ai/ha) | Nightshade plant response rating ([9]; 16 g ai/ha)
100: Plant response rating, Velvetleaf [1, 13] | Plant response rating, Velvetleaf [1, 17] | Crabgrass, Large plant response rating ([2]; 31 g ai/ha) | Crabgrass, Large plant response rating ([2]; 62 g ai/ha) | Plant response rating, Crabgrass, Large [2, 13] | Plant response rating, Crabgrass, Large [2, 17] | Panicum, Fall plant response rating ([11]; 62 g ai/ha) | Plant response rating, Panicum, Fall ([11]; 125 g ai/ha) | Plant response rating, Panicum, Fall ([11]; 250 g ai/ha) | Foxtail, Green plant response rating ([3]; 62 g ai/ha) | Plant response rating, Foxtail, Green [3, 13] | Plant response rating, Foxtail, Green [3, 17] | Plant response rating, Johnsongrass [4, 17] | Arrowleaf Sida plant response rating ([6]; 31 g ai/ha, preemergence) | Plant response rating, Arrowleaf Sida [6, 15] | Plant response rating, Arrowleaf Sida [6, 16] | Plant response rating, Arrowleaf Sida [6, 18] | Morningglory plant response rating ([8]; 62 g ai/ha) | Plant response rating, Morningglory [8, 13] | Plant response rating, Morningglory [8, 17] | Nightshade plant response rating ([9]; 62 g ai/ha) | Plant response rating, Nightshade [9, 13] | Plant response rating, Nightshade [9, 17] | Plant response rating, Beggarticks [10, 18]
20: Dayflower, VA plant response rating ([7]; 31 g ai/ha)
70: Velvetleaf plant response rating ([1]; 31 g ai/ha) | Dayflower, VA plant response rating ([7]; 62 g ai/ha)
5: Ragweed plant response rating ([5]; 62 g ai/ha) | Dayflower, VA plant response rating ([7]; 16 g ai/ha)
98: Panicum, Fall plant response rating ([11]; 31 g ai/ha) | Plant response rating, Dayflower, VA [7, 13] | Plant response rating, Dayflower, VA [7, 17] | Nightshade plant response rating ([9]; 31 g ai/ha)
50: Plant response rating, Ragweed [5, 13] | Morningglory plant response rating ([8]; 31 g ai/ha)
35: Johnsongrass plant response rating ([4]; 31 g ai/ha)
15: Plant response rating, Beggarticks [10, 16]
40: Velvetleaf plant response rating ([1]; 16 g ai/ha)
80: Arrowleaf Sida plant response rating ([6]; 16 g ai/ha, preemergence)
